Test results taken from ChEMBL document CHEMBL3785005, “Novel triazole hybrids of myrrhanone C, a natural polypodane triterpene: Synthesis, cytotoxic activity and cell based studies” (Eur J Med Chem, 2016).

Key:
Type in all cases: functional, cell-based
MCF7 = experiment: Cytotoxicity against human MCF7 cells assessed as cell viability after 48 hrs by MTT assay; settings: MCF7, 48 h
A549 = experiment: Cytotoxicity against human A549 cells assessed as cell viability after 48 hrs by MTT assay; settings: A549, 48 h
HeLa = experiment: Cytotoxicity against human HeLa cells assessed as cell viability after 48 hrs by MTT assay
[1] = Cytotoxicity against human DU145 cells assessed as cell viability after 48 hrs by MTT assay; settings: DU-145, 48 h
HepG2 = experiment: Cytotoxicity against human HepG2 cells assessed as cell viability after 48 hrs by MTT assay; settings: HepG2, 48 h

COc1cccc(-n2cc(CO/N=C3\CC[C@]4(C)[C@@H](CC/C=C(\C)CC/C=C(\C)CCC=C(C)C)[C@](C)(O)CC[C@H]4C3(C)C)nn2)c1
IC50 (MCF7): 25.4 µM | IC50 (A549): 21.7 µM | IC50 (HeLa): 22.9 µM | IC50 [1]: 30.5 µM | IC50 (HepG2): 51.3 µM

CC(C)=CCC/C(C)=C/CC/C(C)=C/CC[C@@H]1[C@@]2(C)CC/C(=N\OCc3cn(-c4ccc(F)c(F)c4F)nn3)C(C)(C)[C@@H]2CC[C@@]1(C)O
IC50 (MCF7): 32.2 µM | IC50 (A549): 26.9 µM | IC50 (HeLa): 26.2 µM | IC50 [1]: 30.4 µM | IC50 (HepG2): 37.7 µM

CC(C)=CCC/C(C)=C/CC/C(C)=C/CC[C@@H]1[C@@]2(C)CC/C(=N\OCc3cn(-c4ccncc4)nn3)C(C)(C)[C@@H]2CC[C@@]1(C)O
IC50 (MCF7): 12.6 µM | IC50 (A549): 13 µM | IC50 (HeLa): 18.8 µM | IC50 [1]: 17.4 µM | IC50 (HepG2): 22 µM

CC(C)=CCC/C(C)=C/CC/C(C)=C/CC[C@@H]1[C@@]2(C)CC/C(=N\OCc3cn(-c4ccc(Cl)cc4)nn3)C(C)(C)[C@@H]2CC[C@@]1(C)O
IC50 (MCF7): 12.4 µM | IC50 (A549): 12.3 µM | IC50 (HeLa): 14.8 µM | IC50 [1]: 16.2 µM | IC50 (HepG2): 19.9 µM

CC(C)=CCC/C(C)=C/CC/C(C)=C/CC[C@@H]1[C@@]2(C)CC/C(=N\OCc3cn(-c4ccccc4C#N)nn3)C(C)(C)[C@@H]2CC[C@@]1(C)O
IC50 (MCF7): 24.9 µM | IC50 (A549): 19.9 µM | IC50 (HeLa): 21.2 µM | IC50 [1]: 25.1 µM | IC50 (HepG2): 21.9 µM

CC(C)=CCC/C(C)=C/CC/C(C)=C/CC[C@@H]1[C@@]2(C)CC/C(=N\OCc3cn(-c4cccc(C(F)(F)F)c4)nn3)C(C)(C)[C@@H]2CC[C@@]1(C)O
IC50 (MCF7): 21.4 µM | IC50 (A549): 12.9 µM | IC50 (HeLa): 12.5 µM | IC50 [1]: 11.8 µM | IC50 (HepG2): 22.7 µM

CC(C)=CCC/C(C)=C/CC/C(C)=C/CC[C@@H]1[C@@]2(C)CC/C(=N\OCc3cn(-c4cccc(O)c4)nn3)C(C)(C)[C@@H]2CC[C@@]1(C)O
IC50 (MCF7): 9.9 µM | IC50 (A549): 12.8 µM | IC50 (HeLa): 13.5 µM | IC50 [1]: 17.5 µM | IC50 (HepG2): 21.2 µM

CC(C)=CCC/C(C)=C/CC/C(C)=C/CC[C@@H]1[C@@]2(C)C/C(=C\c3ccc(OCc4cn(-c5cccc(Br)c5)nn4)cc3)C(=O)C(C)(C)[C@@H]2CC[C@@]1(C)O
IC50 (MCF7): 61 µM | IC50 (A549): 33.8 µM | IC50 (HeLa): 37.1 µM | IC50 [1]: 40.5 µM | IC50 (HepG2): 23.7 µM

CC(C)=CCC/C(C)=C/CC/C(C)=C/CC[C@@H]1[C@@]2(C)CC/C(=N\OCc3cn(-c4c(Cl)cc([N+](=O)[O-])cc4Cl)nn3)C(C)(C)[C@@H]2CC[C@@]1(C)O
IC50 (MCF7): 16.6 µM | IC50 (A549): 11.2 µM | IC50 (HeLa): 23 µM | IC50 [1]: 16.4 µM | IC50 (HepG2): 34.9 µM

CC(C)=CCC/C(C)=C/CC/C(C)=C/CC[C@@H]1[C@@]2(C)CCC(=O)C(C)(C)[C@@H]2CC[C@@]1(C)O
IC50 (MCF7): 16.2 µM | IC50 (A549): 12 µM | IC50 (HeLa): 18.3 µM | IC50 [1]: 13.2 µM | IC50 (HepG2): 26.6 µM

CC(C)=CCC/C(C)=C/CC/C(C)=C/CC[C@@H]1[C@@]2(C)C/C(=C\c3ccc(OCc4cn(-c5ccc(Cl)cc5)nn4)cc3)C(=O)C(C)(C)[C@@H]2CC[C@@]1(C)O
IC50 (MCF7): 72.4 µM | IC50 (A549): 83.2 µM | IC50 (HeLa): 50.7 µM | IC50 [1]: 79.4 µM | IC50 (HepG2): 123 µM

CC(C)=CCC/C(C)=C/CC/C(C)=C/CC[C@@H]1[C@@]2(C)C/C(=C\c3ccc(OCc4cn(-c5ccc(F)c(Cl)c5)nn4)cc3)C(=O)C(C)(C)[C@@H]2CC[C@@]1(C)O
IC50 (MCF7): 46.5 µM | IC50 (A549): 46.6 µM | IC50 (HeLa): 43 µM | IC50 [1]: 28.4 µM | IC50 (HepG2): 40.2 µM

CC(C)=CCC/C(C)=C/CC/C(C)=C/CC[C@@H]1[C@@]2(C)C/C(=C\c3ccc(OCc4cn(-c5cccc([N+](=O)[O-])c5)nn4)cc3)C(=O)C(C)(C)[C@@H]2CC[C@@]1(C)O
IC50 (MCF7): 79.4 µM | IC50 (A549): 126 µM | IC50 (HeLa): 32.9 µM | IC50 [1]: 46.4 µM | IC50 (HepG2): 117 µM

CC(C)=CCC/C(C)=C/CC/C(C)=C/CC[C@@H]1[C@@]2(C)CC/C(=N\OCc3cn(-c4ccc(F)cc4)nn3)C(C)(C)[C@@H]2CC[C@@]1(C)O
IC50 (MCF7): 25.9 µM | IC50 (A549): 18 µM | IC50 (HeLa): 21.4 µM | IC50 [1]: 21.6 µM | IC50 (HepG2): 63.1 µM

COc1cccc(-n2cc(COc3ccc(/C=C4\C[C@]5(C)[C@@H](CC/C=C(\C)CC/C=C(\C)CCC=C(C)C)[C@](C)(O)CC[C@H]5C(C)(C)C4=O)cc3)nn2)c1
IC50 (MCF7): 16.6 µM | IC50 (A549): 45.7 µM | IC50 (HeLa): 16.2 µM | IC50 [1]: 14.5 µM | IC50 (HepG2): 50.1 µM

CC(C)=CCC/C(C)=C/CC/C(C)=C/CC[C@@H]1[C@@]2(C)C/C(=C\c3ccc(OCc4cn(-c5ccc(F)cc5)nn4)cc3)C(=O)C(C)(C)[C@@H]2CC[C@@]1(C)O
IC50 (MCF7): 42 µM | IC50 (A549): 55.2 µM | IC50 (HeLa): 126 µM | IC50 [1]: 33.6 µM | IC50 (HepG2): 35.9 µM

CC(C)=CCC/C(C)=C/CC/C(C)=C/CC[C@@H]1[C@@]2(C)C/C(=C\c3ccc(OCc4cn(-c5c(Cl)cc([N+](=O)[O-])cc5Cl)nn4)cc3)C(=O)C(C)(C)[C@@H]2CC[C@@]1(C)O
IC50 (MCF7): 27.1 µM | IC50 (A549): 34.7 µM | IC50 (HeLa): 36.9 µM | IC50 [1]: 20.9 µM | IC50 (HepG2): 25.1 µM

COc1cccc2c1C(=O)c1c(O)c3c(c(O)c1C2=O)C[C@@](O)(C(=O)CO)C[C@@H]3O[C@H]1C[C@H](N)[C@H](O)[C@H](C)O1 [DOXORUBICIN]
IC50 (A549): 2.81 µM | IC50 (HeLa): 2.57 µM | IC50 [1]: 1.41 µM | IC50 (HepG2): 3.01 µM

CC(C)=CCC/C(C)=C/CC/C(C)=C/CC[C@@H]1[C@@]2(C)CC/C(=N\OCc3cn(-c4cccc(Br)c4)nn3)C(C)(C)[C@@H]2CC[C@@]1(C)O
IC50 (MCF7): 24.8 µM | IC50 (A549): 11.7 µM | IC50 (HeLa): 15.7 µM | IC50 [1]: 14.6 µM | IC50 (HepG2): 39.8 µM

CC(C)=CCC/C(C)=C/CC/C(C)=C/CC[C@@H]1[C@@]2(C)C/C(=C\c3ccc(OCc4cn(-c5ccncc5)nn4)cc3)C(=O)C(C)(C)[C@@H]2CC[C@@]1(C)O
IC50 (MCF7): 37.5 µM | IC50 (A549): 34 µM | IC50 (HeLa): 77.6 µM | IC50 [1]: 25.7 µM | IC50 (HepG2): 105 µM

CC(C)=CCC/C(C)=C/CC/C(C)=C/CC[C@@H]1[C@@]2(C)CC/C(=N\OCc3cn(-c4cccc([N+](=O)[O-])c4)nn3)C(C)(C)[C@@H]2CC[C@@]1(C)O
IC50 (MCF7): 20.7 µM | IC50 (A549): 14.8 µM | IC50 (HeLa): 18.4 µM | IC50 [1]: 17.4 µM | IC50 (HepG2): 22 µM

CC(C)=CCC/C(C)=C/CC/C(C)=C/CC[C@@H]1[C@@]2(C)CC/C(=N\OCc3cn(-c4ccc(F)c(Cl)c4)nn3)C(C)(C)[C@@H]2CC[C@@]1(C)O
IC50 (MCF7): 31.4 µM | IC50 (A549): 21.4 µM | IC50 (HeLa): 20.1 µM | IC50 [1]: 26.9 µM | IC50 (HepG2): 58.9 µM

CC(C)=CCC/C(C)=C/CC/C(C)=C/CC[C@@H]1[C@@]2(C)C/C(=C\c3ccc(OCc4cn(-c5cccc(O)c5)nn4)cc3)C(=O)C(C)(C)[C@@H]2CC[C@@]1(C)O
IC50 (MCF7): 45.5 µM | IC50 (A549): 110 µM | IC50 (HeLa): 158 µM | IC50 [1]: 40.6 µM | IC50 (HepG2): 26.9 µM

CC(C)=CCC/C(C)=C/CC/C(C)=C/CC[C@@H]1[C@@]2(C)C/C(=C\c3ccc(OCc4cn(-c5cccc(C(F)(F)F)c5)nn4)cc3)C(=O)C(C)(C)[C@@H]2CC[C@@]1(C)O
IC50 (MCF7): 13.8 µM | IC50 (A549): 23.2 µM | IC50 (HeLa): 17.3 µM | IC50 [1]: 9.33 µM | IC50 (HepG2): 27.6 µM

CC(C)=CCC/C(C)=C/CC/C(C)=C/CC[C@@H]1[C@@]2(C)C/C(=C\c3ccc(OCc4cn(-c5ccccc5C#N)nn4)cc3)C(=O)C(C)(C)[C@@H]2CC[C@@]1(C)O
IC50 (MCF7): 29.9 µM | IC50 (A549): 61.6 µM | IC50 (HeLa): 100 µM | IC50 [1]: 25.1 µM | IC50 (HepG2): 63.1 µM
